The record followed here is patent publication US20030170890A1, “Pathologically modified myocardial cell, production and use thereof” (priority 1999, published 2003).

No end group written: not given here.

Type in all cases: cell-based
Assay [1] deals with cardiomyocytes from the neonatal rat. Nature of the assay: Effect of inhibitors on DCMAG-1 translocation in the immunofluorescence test. The following applies: cells stimulated with LIF; for % dotted pattern / % filamentous pattern / % in Z-bands: ISO and ET-1 (single dosage) 48 h, without or with 30 μM LY294002, 50 μM SB 203580, 15 nM Go 6976, 50 μM PD98059, ±SEM; for effect on translocation of DCMAG-1 into the sarcomere (in words): ISO and ET-1. As to the method: Neonatal rat cardiomyocytes were prepared as in Example 3 and seeded in a density of 1×10^5 cells per 1.5 cm well (reaction chamber in a cell culture dish). The cell culture dishes contained 1.5 cm cover glasses (Schubert und Weiβ) coated with 1% gelatin solution. The cells were incubated after 24 hours with DMEM and subsequently in maintenance medium with or without stimulus (LIF/ISO and ET-1, concentration as above for single dosage) for 48 hours.
In order to determine the signal transduction pathways required for translocation of DCMAG-1, the stimulated cells were incubated with inhibitors, namely 30 μM LY294002 (Sigma), 50 μM SB 203580 (Sigma), 15 nM Go 6976 (Alexis) or 50 μM PD98059 (NEB) for 48 h (after 24 h, the medium and inhibitors were renewed because the activity of the inhibitors was limited to 24 h in aqueous solution).
After 48 h, the cells were fixed with 4% paraformaldehyde, permeabilized with 0.2% Triton-X100 and stained with anti-DCMAG (polyclonal, own production, 1:500) or α-actinin (as control, Sigma, 1:500) and visualized with anti-mouse or anti-rabbit Cy3 (Jackson Labs, USA) in immunofluorescence. In order to measure the effect of the inhibitors, the cells were visually classified and counted.

In assay [2] the test system is neonatal rat cardiomyocytes. Nature of the assay: Stimulation of isolated neonatal rat cardiomyocytes, recruitment of DCMAG-1 into the sarcomere (immunofluorescence). The following applies: for Sarcomere (recruitment of DCMAG-1), 1 × stimulation: 48 hours; for DCMAG-1 stain pattern of stimulated cells (in words): immunofluorescence, anti-DCMAG-1 antibody. The text has this: Primary cardiomyocytes were isolated from neonatal rats to carry out a hypertrophy experiment. The rats were from one to seven days old and were sacrificed by cervical dislocation. To isolate the cardiomyocytes, the ventricles of the contracting hearts were removed and dissociated using the “Neonatal Cardiomyocyte Isolation System” (Worthington Biochemicals Corporation, Lakewood, N.J.). […] The next day, the trypsin treatment was stopped by adding a trypsin inhibitor, and then a collagenase treatment was carried out at 37° C. for 45 minutes. The cells were dissociated by pipetting, passed through a “cell strainer” (70 μm) and centrifuged at 60×g twice for 5 min. The cell pellet was then taken up in 20 ml of conventional adhesion medium. Seeding took place at a density of 6×10^4 cells/cm^2 on gelatin-coated (Sigma, Deisenhofen) tissue culture dishes or cover glasses. The next morning, the medium was removed by aspiration and, after washing with DMEM (conventional cell culture medium) twice, replaced by cultivation medium.
The cells were stimulated two to six hours after the medium was changed. This was done by treating the cardiomyocytes with various stimulants or combinations of stimulants (see Table 1) for 48 hours, followed by analysis. It was possible to observe the progress of a single stimulation on the basis of the morphological changes in the cells (hypertrophy). Besides the morphological changes, immunofluorescence analyses were also used to determine hypertrophy parameters (DCMAG-1 recruitment).
For the immunofluorescence analysis, the stimulated cardiomyocytes were washed twice with cold PBS and fixed with 3% paraformaldehyde solution in PBS for 20 minutes. After washing again with cold PBS, the cells were incubated twice with 100 mM ammonium chloride in PBS, for 10 min each time, at room temperature. This was followed by a further washing step with cold PBS and incubation with 0.2% Triton-X 100 in PBS at room temperature for 5 min. Washing twice with 0.1% gelatin in PBS was followed by incubation with the first antibody at 37° C. in a “humidity chamber” known to the skilled worker. The first antibody (against the second domain of DCMAG-1) was diluted 1/500 in incubation solution (0.5% Tween-20; 0.5% BSA; in PBS). This was followed after one hour by three washing steps with PBS at room temperature for 5 min each time. The second antibody (obtained from goat, directed against rabbit, Cy3-coupled; Dianova, Hamburg) was diluted 1/200 in incubation solution and likewise incubated with the fixed cells at 37° C. for one hour. After three further washing steps with PBS at room temperature for 5 min each time, and a brief immersion in deionized water, the preparations were covered with a layer of Histosafe (Linaris, Wertheim-Bettingen) and applied to slides. Evaluation took place under a microscope (Axiovert 100S, Cy3 filter set, Zeiss, Göttingen).
Thus, for quantitative evaluation of these stimulation experiments, the recruitment of DCMAG-1 into the sarcomere was measured and categorized as follows: […]

Assay [3] relates to neonatal rat cardiomyocytes. Nature of the assay: Stimulation of neonatal cardiomyocytes by phorbol ester, DCMAG-1 localization visually classified and counted. The following applies: for % dotted pattern / % filamentous pattern / % in the sarcomere: 48 hours, ±SEM. How it is done: In these experiments, the cardiomyocytes were prepared as described above and seeded onto cover glasses. Stimulation with various concentrations of PMA was carried out for 48 hours, and the cells were fixed, stained as described above and investigated for DCMAG-1 translocation. The cells were visually classified and counted.

For assay [4], the system named is Rat cardiomyocytes. Description: Localization of DCMAG-1 after PMA or triple stimulation (colocalization with α-actinin / MHC). The following applies: double staining with α-actinin or MHC. How it is done: Since PMA brings about translocation of DCMAG-1 into the sarcomeres just like activation of three signal transduction pathways via their receptors, the sarcomeric structures into which DCMAG-1 was translocated with PMA or triple stimulation was investigated. Colocalization experiments were carried out for this purpose. Rat cardiomyocytes were seeded as described above on cover glasses, and correspondingly stimulated, fixed and stained. With the stains, anti-DCMAG-1 antibody (polyclonal) was mixed with either monoclonal α-actinin (Sigma, 1:500) or monoclonal anti-myosin (heavy chain, MHC, Sigma, 1:500). The secondary antibodies used were FITC-anti-mouse (1:250) and Texas Red-anti-rabbit (1:50; both from Dianova).
Evaluation took place with the aid of a fluorescence microscope, a Fuji-CCD camera and Aida software or with the aid of a confocal microscope (Pascal from Zeiss) and LSM software (Zeiss).

[5] abbreviates: single dosage: PE 100 μM, LIF 1 ng/ml, ET-1 10 nM, ISO 10 μM, IN 100 nM.

Take `O=c1cc(N2CCOCC2)oc2c(-c3ccccc3)cccc12` [LY, LY294002]: in assay [1], the “% dotted pattern” value was 46.6 ± 5.3%, the “% filamentous pattern” value is listed as 41.2 ± 4.1% and the “% in Z-bands” value was 11.3 ± 2.0%.
Take `CC(C)NCC(O)c1ccc(O)c(O)c1` (stereo not drawn) [ISO, isoproterenol]: the “Sarcomere (recruitment of DCMAG-1), 1 × stimulation” value (from here on “Sarcomere … 1 × stimulation”) in assay [2] (2 × single dosage) is “(−) (fewer than 2 cells per cover glass)”; in assay [2] (3 × single dosage), “(+) (2 to 5 cells per cover glass)”; in assay [2] (4 × single dosage) it was “(+) (2 to 5 cells per cover glass)”; in assay [2] (5 × single dosage), “(+) (2 to 5 cells per cover glass)”; in assay [2] (setting [5]), “(−) (fewer than 2 cells per cover glass)”. Moreover, in assay [2] (ISO: high concentrations), the “recruitment of DCMAG-1 into the sarcomere (in words, summary of Table 1)” value is “slight effect”.
Take `COc1cccc(-c2cc(=O)c3ccccc3o2)c1N` [PD, PD98059]: in assay [1], the “effect on translocation of DCMAG-1 into the sarcomere (in words)” value is “reducing the translocation”, the “% dotted pattern” value was determined as 58.5 ± 10.7%, the “% filamentous pattern” value is given as 31.6 ± 7.4% and the “% in Z-bands” value is given as 10.1 ± 3.4%.
In the case of “ET-1: hormone / signal molecule stimulating the ETA and ETB endothelin receptors (CSCSSLMDKECVYFCHLDIIW; not fully specified (bridges); ends and bridges not checked; UniProt P05305 53-73, looked up)”, the “Sarcomere … 1 × stimulation” value in assay [2] (2 × single dosage), in assay [2] (3 × single dosage), in assay [2] (4 × single dosage) and in assay [2] (setting [5]) was “(−) (fewer than 2 cells per cover glass)” in each case. Besides, in assay [2], the “DCMAG-1 stain pattern of stimulated cells (in words)” value (from here on “DCMAG-1 stain pattern”) is listed as “filamentous structures”.
Consider insulin, for which the “Sarcomere … 1 × stimulation” value in assay [2] (2 × single dosage) and in assay [2] (setting [5]) was “(−) (fewer than 2 cells per cover glass)” in each case.
Regarding `CNC[C@H](O)c1cccc(O)c1` [PE, phenylephrine], the “Sarcomere … 1 × stimulation” value in assay [2] (2 × single dosage), in assay [2] (3 × single dosage), in assay [2] (4 × single dosage), in assay [2] (5 × single dosage) and in assay [2] (setting [5]) was “(−) (fewer than 2 cells per cover glass)” each time. The “DCMAG-1 stain pattern” value in assay [2] is given as “distributed uniformly over the sarcoplasm”.
With `C[S+]([O-])c1ccc(-c2nc(-c3ccncc3)c(-c3ccc(F)cc3)[nH]2)cc1` (stereo not drawn) [SB, SB 203580], in assay [1], the “% dotted pattern” value was determined as 22.5 ± 5.3%, the “% filamentous pattern” value amounted to 35.5 ± 0.3% and the “% in Z-bands” value came to 41.0 ± 4.9%.
In the case of `Cn1c2ccccc2c2c3c(c4c5ccccc5n(CCC#N)c4c21)CNC3=O` [Gö, Gö 6976], in assay [1], the “effect on translocation of DCMAG-1 into the sarcomere (in words)” value is listed as “reducing the translocation”, the “% dotted pattern” value came out at 29.0 ± 2.1%, the “% filamentous pattern” value is on record as 49.0 ± 0.0% and the “% in Z-bands” value was 22.0 ± 2.1%.
Consider “LIF: cytokine acting via the LIF receptor, assigned to the interleukin-6 family”, for which the “Sarcomere … 1 × stimulation” value in assay [2] (2 × single dosage) and in assay [2] (setting [5]) was “(−) (fewer than 2 cells per cover glass)” throughout. For the same molecule, the “DCMAG-1 stain pattern” value in assay [2] was “distributed uniformly over the sarcoplasm”. Further, the “shape of stimulated cells” value in assay [2] (single stimulation) is given as “elongate shape”.
As for `CCCCCCCCCCCCCC(=O)O[C@@H]1[C@@H](C)[C@@]2(O)[C@@H](C=C(CO)C[C@]3(O)C(=O)C(C)=C[C@@H]23)[C@@H]2C(C)(C)[C@]12OC(C)=O` [PMA, phorbol myristate acetate], in assay [3] (1 nM PMA), the “translocation of DCMAG-1 protein (in words)” value was “translocated into the sarcomere”, the “% dotted pattern” value stood at 46.0 ± 2.0%, the “% filamentous pattern” value worked out at 20.0 ± 1.0% and the “% in the sarcomere” value came to 34.0 ± 3.0%. For the same molecule, in assay [3] (100 nM PMA), the “% dotted pattern” value is on record as 47.0 ± 4.0%, the “% filamentous pattern” value is 13.0 ± 2.0% and the “% in the sarcomere” value came out at 40.0 ± 2.0%. The “sarcomeric structure into which DCMAG-1 is translocated” value in assay [4] is “translocates into the M-line”.
